System: CFTR channel
Experiment: CFTR-dependent halide transport, YFP-H148Q/I152L fluorescent probe (Premo Halide Sensor kit) in osteoblasts
Assay type: cell-based
Conditions: for restoration of the CFTR channel activity: on average, compared with reference substances (Ivacaftor, Lumacaftor, Orkambi)
Method: To evaluate the action of the compounds according to the invention on the restoration of CFTR activity, said compounds were tested in vitro using a suitable Premo Halid Sensor kit (Invitrogen).
The transport of CFTR-dependant chloride ions is thus first evaluated in osteoblasts with the use of a fluorescent probe (halide-sensitive yellow fluorescent protein (YFP)-H148Q/I152 L protein (Life Technologies, Saint Aubin, France)) (FIG. 1).
48 h after transfection of the probe into the cell, CFTR channel activity is stimulated using a solution composed of forskolin, 3-isobutyl-1-methylxanthine and apigenine (each component in a concentration of 10 μM). An iodine solution (140 mM) was then added and the fluorescence was recorded using a plate reader (400 ms/point; Ft) over a period of 60 s (baseline; F0). The decrease in the Ft/F0 ratio represents the restoration of chloride activity of the CFTR channel.
For quantitative analyses, the gradients of the signals obtained are processed in non-linear regressions and correlated to the level of conductance of chloride ions.

Molecule | restoration of CFTR channel activity compared with Ivacaftor and Lumacaftor (osteoblasts, FIG. 1) | restoration of CFTR channel activity compared with Orkambi (osteoblasts, FIG. 1) | restoration of the CFTR channel activity (osteoblasts, FIG. 1) | decrease in fluorescence (Ft/F0) in the presence of the inhibitor (CFTRinh-172 10 μM, untreated osteoblasts, control)
COc1ccc(-c2cc(C(F)(F)F)c(=O)n(Cc3ccccc3)n2)cc1OC [Compound 1, 2-benzyl-6-(3,4-dimethoxyphenyl)-4-(trifluoromethyl)pyridazin-3(2H)-one] | better restoration of CFTR channel activity than those obtained with Ivacaftor and Lumacaftor | restoration of CFTR channel activity similar to that obtained with Orkambi | 150% | –
COc1ccc(Cn2nc(-c3ccc(OC(F)F)c(OC)c3)cc(C(F)(F)F)c2=O)cc1 [Compound 4, 6-(4-(difluoromethoxy)-3-methoxyphenyl)-2-(4-methoxybenzyl)-4-(trifluoromethyl)pyridazin-3(2H)-one] | better restoration of CFTR channel activity than those obtained with Ivacaftor and Lumacaftor | – | 150% | –
CFTRinh-172 [reference compound] | – | – | – | no decrease in fluorescence was observed
